Data taken from US20240139211A1, “METHODS AND COMPOSITIONS FOR TREATING AMYOTROPHIC LATERAL SCLEROSIS” (Amylyx Pharmaceuticals, Inc., priority 2022, published 2024).
Like-named read-outs stand apart in the source and are kept apart here.

Tests used:
[1] = target: P-gp (Homo sapiens, UniProt P08183); experiment: Substrate of P-gp (Caco-2 cells, selective inhibitors)
[2] = target: OATP1B1 (Homo sapiens, UniProt Q9Y6L6); experiment: Inhibitor of OATP1B1, probe substrate uptake; details: for Inhibition of OATP1B1 / Inhibitor of OATP1B1: two concentrations per test article; for potency estimated from few doses: read-out: Estimated IC50, OATP1B1
[3] = system: Caco-2 cells; details: for Permeability in Caco-2 cell assay: 1 and 10 μM (tauroursodeoxycholic acid: 10 μM)
[4] = target: MATE2K (Homo sapiens, UniProt Q86VL8); experiment: Inhibitor of MATE2-K, probe substrate uptake; details: for Inhibition of MATE2-K / Inhibitor of MATE2-K: two concentrations per test article; for potency estimated from few doses: read-out: Estimated IC50, MATE2-K
[5] = system: human hepatocytes; experiment: Cytotoxicity of six test articles in hepatocyte cultures (MTS); details: for Concentrations at which not hepatotoxic: Donor 1, 72±2 hours
[6] = target: T1, OCT1 (Homo sapiens, UniProt O15245); experiment: Inhibitor of OCT1, probe substrate uptake; details: for Inhibition of OCT1 / Inhibitor of OCT1: two concentrations per test article; for potency estimated from few doses: read-out: Estimated IC50, OCT1
T1 sequence (O15245 1-554): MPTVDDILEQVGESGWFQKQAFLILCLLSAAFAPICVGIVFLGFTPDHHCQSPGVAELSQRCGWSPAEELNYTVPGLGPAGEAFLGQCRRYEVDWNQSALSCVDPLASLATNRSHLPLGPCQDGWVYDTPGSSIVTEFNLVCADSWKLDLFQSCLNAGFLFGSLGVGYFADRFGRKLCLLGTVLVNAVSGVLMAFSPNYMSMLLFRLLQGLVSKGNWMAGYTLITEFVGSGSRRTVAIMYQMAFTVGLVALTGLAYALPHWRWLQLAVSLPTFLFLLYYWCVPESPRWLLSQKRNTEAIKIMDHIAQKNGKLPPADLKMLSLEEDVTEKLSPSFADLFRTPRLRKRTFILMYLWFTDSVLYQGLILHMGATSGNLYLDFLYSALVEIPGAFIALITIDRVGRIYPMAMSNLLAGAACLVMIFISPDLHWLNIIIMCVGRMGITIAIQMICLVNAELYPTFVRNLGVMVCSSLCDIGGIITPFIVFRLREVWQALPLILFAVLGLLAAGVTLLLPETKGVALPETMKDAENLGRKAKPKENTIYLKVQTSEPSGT

[7] = target: BSEP (Homo sapiens, UniProt O95342); experiment: Substrate of BSEP; details: test article 1 and 10 μM
[8] = target: T2, OAT3 (Homo sapiens, UniProt Q8TCC7); experiment: Inhibitor of OAT3, probe substrate uptake; details: for potency estimated from few doses: read-out: Estimated IC50, OAT3; for Inhibition of OAT3 / Inhibitor of OAT3: two concentrations per test article
T2 sequence (Q8TCC7 1-542): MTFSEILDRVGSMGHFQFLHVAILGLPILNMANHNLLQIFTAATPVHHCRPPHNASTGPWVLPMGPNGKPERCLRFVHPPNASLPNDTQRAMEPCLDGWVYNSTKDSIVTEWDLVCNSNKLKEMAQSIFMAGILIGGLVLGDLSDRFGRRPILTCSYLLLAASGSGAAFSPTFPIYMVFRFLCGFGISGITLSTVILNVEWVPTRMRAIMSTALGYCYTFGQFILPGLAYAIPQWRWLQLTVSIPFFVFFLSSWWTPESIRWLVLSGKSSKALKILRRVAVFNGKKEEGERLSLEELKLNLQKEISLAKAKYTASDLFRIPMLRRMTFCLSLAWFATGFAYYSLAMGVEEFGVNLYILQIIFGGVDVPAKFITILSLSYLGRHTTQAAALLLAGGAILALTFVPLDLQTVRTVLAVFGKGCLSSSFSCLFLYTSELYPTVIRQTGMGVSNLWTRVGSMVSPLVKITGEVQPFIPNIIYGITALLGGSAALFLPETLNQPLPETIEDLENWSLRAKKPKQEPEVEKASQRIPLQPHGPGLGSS

[9] = target: T3, OATP1B3 (Homo sapiens, UniProt Q9NPD5); experiment: Inhibitor of OATP1B3, probe substrate uptake; details: for potency estimated from few doses: read-out: Estimated IC50, OATP1B3; for Inhibition of OATP1B3 / Inhibitor of OATP1B3: two concentrations per test article
[10] = target: T2, OAT3; experiment: Substrate of OAT3, uptake in HEK293 cells
From the text: (§1) Vector-transfected HEK cells were used as a control.

[11] = target: T4, OAT1 (Homo sapiens, UniProt Q4U2R8); experiment: Substrate of OAT1, uptake in HEK293 cells
T4 sequence (Q4U2R8 1-563): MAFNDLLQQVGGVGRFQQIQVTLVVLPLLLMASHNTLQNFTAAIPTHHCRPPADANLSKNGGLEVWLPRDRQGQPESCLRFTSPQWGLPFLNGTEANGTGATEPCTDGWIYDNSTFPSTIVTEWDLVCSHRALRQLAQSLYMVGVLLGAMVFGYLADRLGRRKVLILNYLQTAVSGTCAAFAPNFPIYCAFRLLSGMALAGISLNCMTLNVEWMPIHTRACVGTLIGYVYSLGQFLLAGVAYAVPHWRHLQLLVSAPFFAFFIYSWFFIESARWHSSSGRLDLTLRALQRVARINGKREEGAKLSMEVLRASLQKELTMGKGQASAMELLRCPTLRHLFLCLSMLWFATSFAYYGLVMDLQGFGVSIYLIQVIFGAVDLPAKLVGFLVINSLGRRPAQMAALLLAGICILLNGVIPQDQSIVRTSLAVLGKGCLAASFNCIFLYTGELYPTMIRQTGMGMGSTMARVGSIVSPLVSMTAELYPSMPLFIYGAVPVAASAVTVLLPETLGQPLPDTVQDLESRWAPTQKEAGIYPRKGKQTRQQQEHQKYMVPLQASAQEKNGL
From the text: as §1

[12] = target: T3, OATP1B3; experiment: Substrate of OATP1B3, uptake in HEK293 cells
From the text: as §1

[13] = test article 1 and 10 μM, Caco-2 cells
[14] = estimated from two concentrations
[15] = 1 and 10 μM, transport buffer alone

T3 sequence (Q9NPD5 whole entry): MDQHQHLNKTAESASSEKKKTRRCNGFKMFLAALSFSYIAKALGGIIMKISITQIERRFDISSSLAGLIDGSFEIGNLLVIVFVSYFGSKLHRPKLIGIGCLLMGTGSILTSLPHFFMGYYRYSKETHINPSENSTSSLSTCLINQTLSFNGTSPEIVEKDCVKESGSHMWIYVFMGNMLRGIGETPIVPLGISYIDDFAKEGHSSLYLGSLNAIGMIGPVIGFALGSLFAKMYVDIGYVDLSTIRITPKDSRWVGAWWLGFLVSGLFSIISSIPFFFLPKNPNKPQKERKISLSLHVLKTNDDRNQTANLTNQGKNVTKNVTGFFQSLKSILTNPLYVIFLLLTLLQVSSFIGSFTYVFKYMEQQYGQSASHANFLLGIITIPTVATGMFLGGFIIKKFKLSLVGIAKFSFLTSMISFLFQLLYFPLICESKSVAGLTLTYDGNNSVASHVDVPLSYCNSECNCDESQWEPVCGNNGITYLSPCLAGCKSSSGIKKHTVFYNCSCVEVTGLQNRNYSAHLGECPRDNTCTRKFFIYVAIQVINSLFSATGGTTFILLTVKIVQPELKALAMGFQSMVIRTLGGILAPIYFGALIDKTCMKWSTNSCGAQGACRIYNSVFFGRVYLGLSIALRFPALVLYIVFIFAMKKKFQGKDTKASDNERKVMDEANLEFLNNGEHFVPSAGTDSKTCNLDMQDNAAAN
P-gp, sequence (P08183 whole entry): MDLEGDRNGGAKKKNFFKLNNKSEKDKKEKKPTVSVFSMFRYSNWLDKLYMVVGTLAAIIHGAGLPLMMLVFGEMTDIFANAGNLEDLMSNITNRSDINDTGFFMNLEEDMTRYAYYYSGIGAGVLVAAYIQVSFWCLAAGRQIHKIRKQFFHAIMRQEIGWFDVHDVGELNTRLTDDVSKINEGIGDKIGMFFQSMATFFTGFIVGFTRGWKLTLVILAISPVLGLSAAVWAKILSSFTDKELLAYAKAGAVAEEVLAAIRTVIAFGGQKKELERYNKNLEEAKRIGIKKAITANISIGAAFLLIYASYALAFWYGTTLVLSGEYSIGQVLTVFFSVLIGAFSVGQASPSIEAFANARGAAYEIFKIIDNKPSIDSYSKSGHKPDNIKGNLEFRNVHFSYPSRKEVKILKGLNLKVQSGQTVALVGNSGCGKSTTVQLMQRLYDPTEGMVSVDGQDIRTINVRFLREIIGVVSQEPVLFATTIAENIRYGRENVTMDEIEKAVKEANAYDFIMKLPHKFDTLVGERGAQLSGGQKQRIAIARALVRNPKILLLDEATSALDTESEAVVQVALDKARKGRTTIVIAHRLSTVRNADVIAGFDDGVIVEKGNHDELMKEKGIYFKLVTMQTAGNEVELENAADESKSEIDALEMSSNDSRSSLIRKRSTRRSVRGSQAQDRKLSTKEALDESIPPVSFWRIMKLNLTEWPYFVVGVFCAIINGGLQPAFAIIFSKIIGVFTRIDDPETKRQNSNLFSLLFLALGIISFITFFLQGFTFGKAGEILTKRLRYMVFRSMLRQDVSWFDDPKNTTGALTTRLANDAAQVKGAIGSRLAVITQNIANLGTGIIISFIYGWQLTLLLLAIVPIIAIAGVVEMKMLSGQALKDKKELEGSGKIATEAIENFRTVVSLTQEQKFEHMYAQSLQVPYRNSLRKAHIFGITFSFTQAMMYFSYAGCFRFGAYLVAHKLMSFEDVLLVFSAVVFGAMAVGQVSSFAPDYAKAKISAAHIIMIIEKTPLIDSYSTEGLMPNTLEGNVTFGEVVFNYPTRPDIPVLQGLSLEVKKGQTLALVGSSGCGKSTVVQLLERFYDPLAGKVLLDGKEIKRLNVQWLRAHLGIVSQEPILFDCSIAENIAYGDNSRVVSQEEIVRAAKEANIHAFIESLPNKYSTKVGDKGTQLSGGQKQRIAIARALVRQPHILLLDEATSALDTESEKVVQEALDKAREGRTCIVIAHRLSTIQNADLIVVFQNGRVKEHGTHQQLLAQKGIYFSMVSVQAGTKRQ
MATE2K, sequence (Q86VL8 1-566 isoform Q86VL8-3): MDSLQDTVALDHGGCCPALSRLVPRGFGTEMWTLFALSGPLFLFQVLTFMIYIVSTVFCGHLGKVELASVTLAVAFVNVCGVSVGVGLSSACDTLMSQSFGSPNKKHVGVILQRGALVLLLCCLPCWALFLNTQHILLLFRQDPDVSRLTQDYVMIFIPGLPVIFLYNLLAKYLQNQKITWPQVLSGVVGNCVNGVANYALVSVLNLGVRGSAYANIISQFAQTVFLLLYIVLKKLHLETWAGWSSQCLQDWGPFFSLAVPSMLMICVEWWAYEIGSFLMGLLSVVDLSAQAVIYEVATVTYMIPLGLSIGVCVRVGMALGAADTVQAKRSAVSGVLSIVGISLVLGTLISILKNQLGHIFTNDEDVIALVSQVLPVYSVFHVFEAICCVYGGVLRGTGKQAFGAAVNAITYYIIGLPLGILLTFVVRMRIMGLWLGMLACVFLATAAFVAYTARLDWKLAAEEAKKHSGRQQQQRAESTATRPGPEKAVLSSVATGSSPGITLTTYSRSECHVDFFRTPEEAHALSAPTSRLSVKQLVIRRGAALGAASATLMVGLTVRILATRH
BSEP, sequence (O95342 whole entry): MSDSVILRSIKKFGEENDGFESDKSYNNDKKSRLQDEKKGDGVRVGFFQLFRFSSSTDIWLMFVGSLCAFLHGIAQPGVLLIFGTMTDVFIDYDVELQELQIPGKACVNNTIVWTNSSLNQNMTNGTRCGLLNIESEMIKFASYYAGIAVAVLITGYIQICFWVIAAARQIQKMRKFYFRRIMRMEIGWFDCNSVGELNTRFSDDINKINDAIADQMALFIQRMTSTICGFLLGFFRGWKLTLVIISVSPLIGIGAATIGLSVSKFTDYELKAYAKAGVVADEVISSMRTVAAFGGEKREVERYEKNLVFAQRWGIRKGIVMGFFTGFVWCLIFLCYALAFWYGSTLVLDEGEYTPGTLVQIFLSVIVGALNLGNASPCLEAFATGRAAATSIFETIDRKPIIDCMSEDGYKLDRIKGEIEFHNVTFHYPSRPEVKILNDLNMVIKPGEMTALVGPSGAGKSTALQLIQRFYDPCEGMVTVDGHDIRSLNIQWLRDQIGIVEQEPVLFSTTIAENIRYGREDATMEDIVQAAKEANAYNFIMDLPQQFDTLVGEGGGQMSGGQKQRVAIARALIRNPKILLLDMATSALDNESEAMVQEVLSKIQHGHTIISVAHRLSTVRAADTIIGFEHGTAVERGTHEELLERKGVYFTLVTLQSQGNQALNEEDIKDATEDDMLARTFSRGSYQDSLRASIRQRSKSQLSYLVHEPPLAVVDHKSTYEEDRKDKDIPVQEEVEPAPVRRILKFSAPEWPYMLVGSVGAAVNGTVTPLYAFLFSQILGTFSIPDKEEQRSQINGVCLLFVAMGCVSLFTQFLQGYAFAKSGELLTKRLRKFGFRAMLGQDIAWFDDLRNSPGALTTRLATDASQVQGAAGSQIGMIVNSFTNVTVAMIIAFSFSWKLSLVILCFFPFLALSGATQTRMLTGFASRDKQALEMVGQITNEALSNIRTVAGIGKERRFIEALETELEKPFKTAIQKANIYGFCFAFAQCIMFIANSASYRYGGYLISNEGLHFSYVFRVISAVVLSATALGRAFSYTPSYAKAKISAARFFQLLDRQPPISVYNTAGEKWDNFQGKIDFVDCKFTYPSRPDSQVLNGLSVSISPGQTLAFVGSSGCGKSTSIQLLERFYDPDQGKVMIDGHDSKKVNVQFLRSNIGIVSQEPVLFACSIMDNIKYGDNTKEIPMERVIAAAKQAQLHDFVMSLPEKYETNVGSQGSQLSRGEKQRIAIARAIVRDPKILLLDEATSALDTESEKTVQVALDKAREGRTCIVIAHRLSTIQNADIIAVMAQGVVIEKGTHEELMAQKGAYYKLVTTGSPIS
OATP1B1, sequence (Q9Y6L6 whole entry): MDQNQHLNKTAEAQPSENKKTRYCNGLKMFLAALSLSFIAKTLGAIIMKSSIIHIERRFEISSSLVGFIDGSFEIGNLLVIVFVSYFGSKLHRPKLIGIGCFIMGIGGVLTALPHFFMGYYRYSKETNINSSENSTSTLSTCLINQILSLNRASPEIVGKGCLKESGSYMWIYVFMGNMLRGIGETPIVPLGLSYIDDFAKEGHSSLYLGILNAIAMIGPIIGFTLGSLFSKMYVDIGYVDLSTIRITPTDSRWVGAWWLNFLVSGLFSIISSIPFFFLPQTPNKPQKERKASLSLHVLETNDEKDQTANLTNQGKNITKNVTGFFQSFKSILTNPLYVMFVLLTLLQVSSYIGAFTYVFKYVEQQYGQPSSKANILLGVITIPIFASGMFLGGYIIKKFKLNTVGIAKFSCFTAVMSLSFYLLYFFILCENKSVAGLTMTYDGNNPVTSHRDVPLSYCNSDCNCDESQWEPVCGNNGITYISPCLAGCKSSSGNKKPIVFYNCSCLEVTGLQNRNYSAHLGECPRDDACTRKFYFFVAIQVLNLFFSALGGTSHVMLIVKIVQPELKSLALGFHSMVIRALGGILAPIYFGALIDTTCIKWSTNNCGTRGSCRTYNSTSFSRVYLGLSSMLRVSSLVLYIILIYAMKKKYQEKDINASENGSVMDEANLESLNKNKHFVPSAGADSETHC

Molecule	Substrate of P-gp ([1]; Caco-2, 1 and 10 μM)	Substrate of P-gp [1, 13]	Inhibition of OATP1B1 [2]	Inhibitor of OATP1B1 [2]	Permeability in Caco-2 cell assay [3]	Inhibition of MATE2-K [4]	Inhibitor of MATE2-K [4]	Concentrations at which not hepatotoxic [5]	Inhibition of OCT1 [6]	Inhibitor of OCT1 [6]	Substrate of BSEP [7]	potency estimated from few doses [8, 14]	Inhibition of OAT3 [8]	Inhibitor of OAT3 [8]	potency estimated from few doses [9, 14]	Inhibition of OATP1B3 [9]	Inhibitor of OATP1B3 [9]	potency estimated from few doses [2, 14]	Substrate of OAT3 ([10]; 1 and 10 μM)	Substrate of OAT3 ([10]; test article 1 and 10 μM)	also measured
C[C@H](CCC(=O)NCC(=O)O)[C@H]1CC[C@H]2[C@@H]3[C@@H](O)C[C@@H]4C[C@H](O)CC[C@]4(C)[C@H]3CC[C@]12C [Glycoursodeoxycholic acid, glycoursodeoxycholic acid]	as a substrate	Yes	inhibited	Yes	moderate permeability	did not inhibit	No	≤ 100 µM	did not inhibit	No	Yes	< 100 µM	inhibited	Yes	< 100 µM	inhibited	Yes				Efflux remaining with zosuquidar ([1]; Caco-2): < 55.3%; Efflux remaining with verapamil ([1]; Caco-2, at 10 μM): 74.7%; Uptake activity remaining, OATP1B1 ([2]; 10 μM): 50.4%; Uptake activity remaining, OATP1B1 ([2]; 100 μM): 1.68%; Uptake activity remaining, OAT3 ([8]; 100 μM): 24.5%; Uptake activity remaining, OATP1B3 ([9]; 100 μM): 10.6%
O=C(O)CCCc1ccccc1 [PB, sodium phenylbutyrate]	not a substrate	No	did not inhibit	No	high permeability	did not inhibit	No	≤ 250 µM	did not inhibit	No	No	< 25 µM	inhibited	Yes		did not inhibit	No				Uptake activity remaining, OAT3 ([8]; 25 μM): 44.3%
O=C(O)Cc1ccccc1 [Phenylacetic acid, phenylacetic acid]	not a substrate	No	inhibited	Yes	high permeability	did not inhibit	No	≤ 500 µM	did not inhibit	No	No		did not inhibit	No		did not inhibit	No	> 7500 µM	not a substrate	No	Substrate of OAT1 ([11]; 1 and 10 μM): not a substrate; Substrate of OAT1 ([11]; test article 1 and 10 μM): No; Uptake in OATP1B3 cells ([12]; 1 μM): 5.27 pmol/minute/mg protein; Net OATP1B3 uptake remaining with inhibitor ([12]; 10 μM): 79.0%; Uptake in OATP1B3 cells ([12]; 10 μM): 19.3 pmol/min/mg; Substrate of OATP1B3 ([12]; 1 and 10 μM): identified as a substrate; Substrate of OATP1B3 ([12]; test article 1 and 10 μM): Yes
ursodeoxycholic acid	not a substrate	No	inhibited	Yes	high in both directions	inhibited	Yes	≤ 250 µM	inhibited	Yes		< 50 µM	inhibited	Yes	< 50 µM	inhibited	Yes	< 50 µM	not a substrate	No	Uptake activity remaining, OATP1B1 ([2]; 50 μM): 545.1%; Uptake activity remaining, OATP1B1 ([2]; 500 μM): no uptake activity remaining; potency estimated from few doses ([2]; estimated from two doses): < 50 µM; Apparent permeability in both directions ([3]; 1 and 10 μM): > 18 ×10⁻⁶ cm/s; Papp apical to basolateral [3, 15]: ≥ 18.9 ×10⁻⁶ cm/s; Papp basolateral to apical [3, 15]: ≥ 22.8 ×10⁻⁶ cm/s; Substrate of OAT1 ([11]; 1 and 10 μM): not a substrate; Substrate of OAT1 ([11]; test article 1 and 10 μM): No; potency estimated from few doses [4, 14]: > 500 µM; potency estimated from few doses ([4]; estimated from two doses): > 500 µM; Effect on cell viability ([5]; Donor 1, 500 μM): affected cell viability; potency estimated from few doses [6, 14]: < 500 µM; potency estimated from few doses ([6]; estimated from two doses): < 500 µM; Uptake activity remaining, OAT3 ([8]; 50 μM): 27.6%; potency estimated from few doses ([8]; estimated from two doses): < 50 µM; Substrate of OATP1B3 ([12]; 1 and 10 μM): not a substrate; Substrate of OATP1B3 ([12]; test article 1 and 10 μM): No; Uptake activity remaining, OATP1B3 ([9]; 50 μM): 545.1%; Uptake activity remaining, OATP1B3 ([9]; 500 μM): no uptake activity remaining; potency estimated from few doses ([9]; estimated from two doses): < 50 µM
